US12304890B2, “R-type pyridyloxycarboxylic acid, salt and ester derivative thereof, and preparation method therefor, and herbicidal composition and application thereof” (Qingdao Kingagroot Chemical Compound Co., Ltd., priority 2018, dated 2025)

Tested on: Monocotyledonous and dicotyledonous weed seeds and main crop seeds
Experiment: Post-emergence test experiment, other weeds and crops (Table 4, 1000 g a.i./ha)
Assay type: in vivo
Settings: 3 weeks in greenhouse, fresh weight inhibition
Procedure: The above described growth inhibition rate is fresh weight inhibition rate.
Post-emergence test experiment: Monocotyledonous and dicotyledonous weed seeds and main crop seeds (i. e. wheat, corn, rice, soybean, cotton, oilseed, millet and sorghum.) were put into a plastic pot loaded with soil. Then covered with 0.5-2 cm soil, the seeds were allowed to grow in good greenhouse environment. The test plants were treated at 2-3 leaf stage 2 weeks after sowing. The test compounds of the invention were dissolved with acetone respectively, then added with tween-80, and using 1.5 liters per hectare of an emulsible concentrate of methyl oleate as a synergist, and diluted by certain amount of water to certain concentration. The solution was sprayed to the plants with a sprayer.

CCCC(Oc1nc(F)c(Cl)c(N)c1Cl)C(=O)OC (stereo not drawn) [Compound 2-37]
Activity level (growth inhibition rate), Abutilon theophrasti Medic.: 5 (Level 5: the growth inhibition rate is greater than 85%)
Activity level (growth inhibition rate), Galium aparine: 5 (Level 5: the growth inhibition rate is greater than 85%)
Activity level (growth inhibition rate), Monochoria Vaginalis: 5 (Level 5: the growth inhibition rate is greater than 85%)

CSC(=O)C(Oc1nc(F)c(Cl)c(N)c1Cl)C(C)C (stereo not drawn) [Compound 2-36]
Activity level (growth inhibition rate), Abutilon theophrasti Medic.: 5 (Level 5: the growth inhibition rate is greater than 85%)
Activity level (growth inhibition rate), Galium aparine: 5 (Level 5: the growth inhibition rate is greater than 85%)
Activity level (growth inhibition rate), Monochoria Vaginalis: 5 (Level 5: the growth inhibition rate is greater than 85%)

COC(=O)C(Oc1nc(F)c(Cl)c(N)c1Cl)c1ccccc1 (stereo not drawn) [Compound 2-62]
Activity level (growth inhibition rate), Abutilon theophrasti Medic.: 5 (Level 5: the growth inhibition rate is greater than 85%)
Activity level (growth inhibition rate), Galium aparine: 5 (Level 5: the growth inhibition rate is greater than 85%)
Activity level (growth inhibition rate), Monochoria Vaginalis: 5 (Level 5: the growth inhibition rate is greater than 85%)

COC(=O)C(OC)Oc1nc(F)c(Cl)c(N)c1Cl (stereo not drawn) [Compound 2-58]
Activity level (growth inhibition rate), Abutilon theophrasti Medic.: 5 (Level 5: the growth inhibition rate is greater than 85%)
Activity level (growth inhibition rate), Galium aparine: 5 (Level 5: the growth inhibition rate is greater than 85%)
Activity level (growth inhibition rate), Monochoria Vaginalis: 5 (Level 5: the growth inhibition rate is greater than 85%)

COC(=O)C(F)Oc1nc(F)c(Cl)c(N)c1Cl (stereo not drawn) [Compound 2-51]
Activity level (growth inhibition rate), Abutilon theophrasti Medic.: 5 (Level 5: the growth inhibition rate is greater than 85%)
Activity level (growth inhibition rate), Galium aparine: 5 (Level 5: the growth inhibition rate is greater than 85%)
Activity level (growth inhibition rate), Monochoria Vaginalis: 5 (Level 5: the growth inhibition rate is greater than 85%)

COC(=O)C(Br)Oc1nc(F)c(Cl)c(N)c1Cl (stereo not drawn) [Compound 2-52]
Activity level (growth inhibition rate), Abutilon theophrasti Medic.: 5 (Level 5: the growth inhibition rate is greater than 85%)
Activity level (growth inhibition rate), Galium aparine: 5 (Level 5: the growth inhibition rate is greater than 85%)
Activity level (growth inhibition rate), Monochoria Vaginalis: 5 (Level 5: the growth inhibition rate is greater than 85%)

COC(=O)C(Oc1nc(F)c(Cl)c(N)c1Cl)C(F)F (stereo not drawn) [Compound 2-44]
Activity level (growth inhibition rate), Abutilon theophrasti Medic.: 5 (Level 5: the growth inhibition rate is greater than 85%)
Activity level (growth inhibition rate), Galium aparine: 5 (Level 5: the growth inhibition rate is greater than 85%)
Activity level (growth inhibition rate), Monochoria Vaginalis: 5 (Level 5: the growth inhibition rate is greater than 85%)

C[N+](C)(C)CCO.Nc1c(Cl)c(F)nc(O[C@@H](C(=O)[O-])c2ccccc2)c1Cl [Compound 2-6]
Activity level (growth inhibition rate), Abutilon theophrasti Medic.: 5 (Level 5: the growth inhibition rate is greater than 85%)
Activity level (growth inhibition rate), Galium aparine: 5 (Level 5: the growth inhibition rate is greater than 85%)
Activity level (growth inhibition rate), Monochoria Vaginalis: 5 (Level 5: the growth inhibition rate is greater than 85%)

COC(=O)C(CF)Oc1nc(F)c(Cl)c(N)c1Cl (stereo not drawn) [Compound 2-43]
Activity level (growth inhibition rate), Abutilon theophrasti Medic.: 5 (Level 5: the growth inhibition rate is greater than 85%)
Activity level (growth inhibition rate), Galium aparine: 5 (Level 5: the growth inhibition rate is greater than 85%)
Activity level (growth inhibition rate), Monochoria Vaginalis: 5 (Level 5: the growth inhibition rate is greater than 85%)

COC(=O)C(CN(C)C)Oc1nc(F)c(Cl)c(N)c1Cl (stereo not drawn) [Compound 2-59]
Activity level (growth inhibition rate), Abutilon theophrasti Medic.: 5 (Level 5: the growth inhibition rate is greater than 85%)
Activity level (growth inhibition rate), Galium aparine: 5 (Level 5: the growth inhibition rate is greater than 85%)
Activity level (growth inhibition rate), Monochoria Vaginalis: 5 (Level 5: the growth inhibition rate is greater than 85%)

COC(=O)[C@H](Oc1nc(F)c(Cl)c(N)c1Cl)c1cccc(Cl)c1 [Compound 2-64]
Activity level (growth inhibition rate), Abutilon theophrasti Medic.: 5 (Level 5: the growth inhibition rate is greater than 85%)
Activity level (growth inhibition rate), Galium aparine: 5 (Level 5: the growth inhibition rate is greater than 85%)
Activity level (growth inhibition rate), Monochoria Vaginalis: 5 (Level 5: the growth inhibition rate is greater than 85%)

COC(=O)C(CO)Oc1nc(F)c(Cl)c(N)c1Cl (stereo not drawn) [Compound 2-49]
Activity level (growth inhibition rate), Abutilon theophrasti Medic.: 5 (Level 5: the growth inhibition rate is greater than 85%)
Activity level (growth inhibition rate), Galium aparine: 5 (Level 5: the growth inhibition rate is greater than 85%)
Activity level (growth inhibition rate), Monochoria Vaginalis: 5 (Level 5: the growth inhibition rate is greater than 85%)

COC(=O)C(C=O)Oc1nc(F)c(Cl)c(N)c1Cl (stereo not drawn) [Compound 2-48]
Activity level (growth inhibition rate), Abutilon theophrasti Medic.: 5 (Level 5: the growth inhibition rate is greater than 85%)
Activity level (growth inhibition rate), Galium aparine: 5 (Level 5: the growth inhibition rate is greater than 85%)
Activity level (growth inhibition rate), Monochoria Vaginalis: 5 (Level 5: the growth inhibition rate is greater than 85%)

COC(=O)C(Oc1nc(F)c(Cl)c(N)c1Cl)[N+](=O)[O-] (stereo not drawn) [Compound 2-50]
Activity level (growth inhibition rate), Abutilon theophrasti Medic.: 5 (Level 5: the growth inhibition rate is greater than 85%)
Activity level (growth inhibition rate), Galium aparine: 5 (Level 5: the growth inhibition rate is greater than 85%)
Activity level (growth inhibition rate), Monochoria Vaginalis: 5 (Level 5: the growth inhibition rate is greater than 85%)

COC(=O)C(CCl)Oc1nc(F)c(Cl)c(N)c1Cl (stereo not drawn) [Compound 2-41]
Activity level (growth inhibition rate), Abutilon theophrasti Medic.: 5 (Level 5: the growth inhibition rate is greater than 85%)
Activity level (growth inhibition rate), Galium aparine: 5 (Level 5: the growth inhibition rate is greater than 85%)
Activity level (growth inhibition rate), Monochoria Vaginalis: 5 (Level 5: the growth inhibition rate is greater than 85%)

NC(CO)(CO)CO [Compound 2-23, tri(methylol) aminomethane]
Activity level (growth inhibition rate), Abutilon theophrasti Medic.: 5 (Level 5: the growth inhibition rate is greater than 85%)
Activity level (growth inhibition rate), Galium aparine: 5 (Level 5: the growth inhibition rate is greater than 85%)
Activity level (growth inhibition rate), Monochoria Vaginalis: 5 (Level 5: the growth inhibition rate is greater than 85%)

COC(=O)C(CC#N)Oc1nc(F)c(Cl)c(N)c1Cl (stereo not drawn) [Compound 2-60]
Activity level (growth inhibition rate), Abutilon theophrasti Medic.: 5 (Level 5: the growth inhibition rate is greater than 85%)
Activity level (growth inhibition rate), Galium aparine: 5 (Level 5: the growth inhibition rate is greater than 85%)
Activity level (growth inhibition rate), Monochoria Vaginalis: 5 (Level 5: the growth inhibition rate is greater than 85%)

COC(=O)[C@@H](Oc1nc(F)c(Cl)c(N)c1Cl)c1cccs1 [Compound 2-65]
Activity level (growth inhibition rate), Abutilon theophrasti Medic.: 5 (Level 5: the growth inhibition rate is greater than 85%)
Activity level (growth inhibition rate), Galium aparine: 5 (Level 5: the growth inhibition rate is greater than 85%)
Activity level (growth inhibition rate), Monochoria Vaginalis: 5 (Level 5: the growth inhibition rate is greater than 85%)

C#CC(Oc1nc(F)c(Cl)c(N)c1Cl)C(=O)OC (stereo not drawn) [Compound 2-46]
Activity level (growth inhibition rate), Abutilon theophrasti Medic.: 5 (Level 5: the growth inhibition rate is greater than 85%)
Activity level (growth inhibition rate), Galium aparine: 5 (Level 5: the growth inhibition rate is greater than 85%)
Activity level (growth inhibition rate), Monochoria Vaginalis: 5 (Level 5: the growth inhibition rate is greater than 85%)

COC(=O)C(CCCl)Oc1nc(F)c(Cl)c(N)c1Cl (stereo not drawn) [Compound 2-42]
Activity level (growth inhibition rate), Abutilon theophrasti Medic.: 5 (Level 5: the growth inhibition rate is greater than 85%)
Activity level (growth inhibition rate), Galium aparine: 5 (Level 5: the growth inhibition rate is greater than 85%)
Activity level (growth inhibition rate), Monochoria Vaginalis: 5 (Level 5: the growth inhibition rate is greater than 85%)

CN(C)CCCN.Nc1c(Cl)c(F)nc(OC(C(=O)O)c2ccccc2)c1Cl (stereo not drawn) [Compound 2-16]
Activity level (growth inhibition rate), Abutilon theophrasti Medic.: 5 (Level 5: the growth inhibition rate is greater than 85%)
Activity level (growth inhibition rate), Galium aparine: 5 (Level 5: the growth inhibition rate is greater than 85%)
Activity level (growth inhibition rate), Monochoria Vaginalis: 5 (Level 5: the growth inhibition rate is greater than 85%)

NCc1ccccc1 [Compound 2-9, benzylamine]
Activity level (growth inhibition rate), Abutilon theophrasti Medic.: 5 (Level 5: the growth inhibition rate is greater than 85%)
Activity level (growth inhibition rate), Galium aparine: 5 (Level 5: the growth inhibition rate is greater than 85%)
Activity level (growth inhibition rate), Monochoria Vaginalis: 5 (Level 5: the growth inhibition rate is greater than 85%)

CCC(Oc1nc(F)c(Cl)c(N)c1Cl)C(=O)S.NCCCN1CCOCC1 (stereo not drawn) [Compound 2-25]
Activity level (growth inhibition rate), Abutilon theophrasti Medic.: 5 (Level 5: the growth inhibition rate is greater than 85%)
Activity level (growth inhibition rate), Galium aparine: 5 (Level 5: the growth inhibition rate is greater than 85%)
Activity level (growth inhibition rate), Monochoria Vaginalis: 5 (Level 5: the growth inhibition rate is greater than 85%)

Nc1c(Cl)c(F)nc(O[C@@H](C(=O)[O-])c2ccccc2)c1Cl.[Na+] [Compound 2-1]
Activity level (growth inhibition rate), Abutilon theophrasti Medic.: 5 (Level 5: the growth inhibition rate is greater than 85%)
Activity level (growth inhibition rate), Galium aparine: 5 (Level 5: the growth inhibition rate is greater than 85%)
Activity level (growth inhibition rate), Monochoria Vaginalis: 5 (Level 5: the growth inhibition rate is greater than 85%)

C=CCNCC=C.CCC(Oc1nc(F)c(Cl)c(N)c1Cl)C(=O)S (stereo not drawn) [Compound 2-12]
Activity level (growth inhibition rate), Abutilon theophrasti Medic.: 5 (Level 5: the growth inhibition rate is greater than 85%)
Activity level (growth inhibition rate), Galium aparine: 5 (Level 5: the growth inhibition rate is greater than 85%)
Activity level (growth inhibition rate), Monochoria Vaginalis: 5 (Level 5: the growth inhibition rate is greater than 85%)
